Each compound was assayed against T1, human Nav1.7 (Homo sapiens, UniProt Q15858) (assay: Nav 1.7 In Vitro PatchXpress (PX) Assay). Conditions: HEK 293 cells stably transfected with human Nav1.7; PatchXpress whole cell voltage clamp; partially inactivated state (holding potential yielding 20 to 50% inactivation); read-out: hNav1.7 PX IC50.
T1 construct: expressed in transfected cells; host or cells: HEK293
Type: cell-based
Protocol: Nav 1.7 In Vitro PatchXpress (PX) Assay
HEK 293 cells stably transfected with human Nav1.7 were recorded in whole cell voltage clamp mode with the PatchXpress automated electrophysiology system (Molecular Devices, LLC, Sunnyvale, Calif.). Compound effects were measured on a partially inactivated state of the sodium channel. Cells were clamped to a holding potential yielding 20 to 50% inactivation. To elicit sodium current, channels were activated by pulsing to −10 mV for 20 msec. This voltage protocol was repeated at a rate of 0.1 Hz throughout the experiment. A single concentration of test compound was applied to cells for a duration of 3 minutes. Peak sodium current was measured at the end of the compound addition period to determine percent inhibition. Three to five cells were tested per concentration, and IC50 curves were fitted to percent inhibition as a function of concentration.

T1 sequence (Q15858 whole entry): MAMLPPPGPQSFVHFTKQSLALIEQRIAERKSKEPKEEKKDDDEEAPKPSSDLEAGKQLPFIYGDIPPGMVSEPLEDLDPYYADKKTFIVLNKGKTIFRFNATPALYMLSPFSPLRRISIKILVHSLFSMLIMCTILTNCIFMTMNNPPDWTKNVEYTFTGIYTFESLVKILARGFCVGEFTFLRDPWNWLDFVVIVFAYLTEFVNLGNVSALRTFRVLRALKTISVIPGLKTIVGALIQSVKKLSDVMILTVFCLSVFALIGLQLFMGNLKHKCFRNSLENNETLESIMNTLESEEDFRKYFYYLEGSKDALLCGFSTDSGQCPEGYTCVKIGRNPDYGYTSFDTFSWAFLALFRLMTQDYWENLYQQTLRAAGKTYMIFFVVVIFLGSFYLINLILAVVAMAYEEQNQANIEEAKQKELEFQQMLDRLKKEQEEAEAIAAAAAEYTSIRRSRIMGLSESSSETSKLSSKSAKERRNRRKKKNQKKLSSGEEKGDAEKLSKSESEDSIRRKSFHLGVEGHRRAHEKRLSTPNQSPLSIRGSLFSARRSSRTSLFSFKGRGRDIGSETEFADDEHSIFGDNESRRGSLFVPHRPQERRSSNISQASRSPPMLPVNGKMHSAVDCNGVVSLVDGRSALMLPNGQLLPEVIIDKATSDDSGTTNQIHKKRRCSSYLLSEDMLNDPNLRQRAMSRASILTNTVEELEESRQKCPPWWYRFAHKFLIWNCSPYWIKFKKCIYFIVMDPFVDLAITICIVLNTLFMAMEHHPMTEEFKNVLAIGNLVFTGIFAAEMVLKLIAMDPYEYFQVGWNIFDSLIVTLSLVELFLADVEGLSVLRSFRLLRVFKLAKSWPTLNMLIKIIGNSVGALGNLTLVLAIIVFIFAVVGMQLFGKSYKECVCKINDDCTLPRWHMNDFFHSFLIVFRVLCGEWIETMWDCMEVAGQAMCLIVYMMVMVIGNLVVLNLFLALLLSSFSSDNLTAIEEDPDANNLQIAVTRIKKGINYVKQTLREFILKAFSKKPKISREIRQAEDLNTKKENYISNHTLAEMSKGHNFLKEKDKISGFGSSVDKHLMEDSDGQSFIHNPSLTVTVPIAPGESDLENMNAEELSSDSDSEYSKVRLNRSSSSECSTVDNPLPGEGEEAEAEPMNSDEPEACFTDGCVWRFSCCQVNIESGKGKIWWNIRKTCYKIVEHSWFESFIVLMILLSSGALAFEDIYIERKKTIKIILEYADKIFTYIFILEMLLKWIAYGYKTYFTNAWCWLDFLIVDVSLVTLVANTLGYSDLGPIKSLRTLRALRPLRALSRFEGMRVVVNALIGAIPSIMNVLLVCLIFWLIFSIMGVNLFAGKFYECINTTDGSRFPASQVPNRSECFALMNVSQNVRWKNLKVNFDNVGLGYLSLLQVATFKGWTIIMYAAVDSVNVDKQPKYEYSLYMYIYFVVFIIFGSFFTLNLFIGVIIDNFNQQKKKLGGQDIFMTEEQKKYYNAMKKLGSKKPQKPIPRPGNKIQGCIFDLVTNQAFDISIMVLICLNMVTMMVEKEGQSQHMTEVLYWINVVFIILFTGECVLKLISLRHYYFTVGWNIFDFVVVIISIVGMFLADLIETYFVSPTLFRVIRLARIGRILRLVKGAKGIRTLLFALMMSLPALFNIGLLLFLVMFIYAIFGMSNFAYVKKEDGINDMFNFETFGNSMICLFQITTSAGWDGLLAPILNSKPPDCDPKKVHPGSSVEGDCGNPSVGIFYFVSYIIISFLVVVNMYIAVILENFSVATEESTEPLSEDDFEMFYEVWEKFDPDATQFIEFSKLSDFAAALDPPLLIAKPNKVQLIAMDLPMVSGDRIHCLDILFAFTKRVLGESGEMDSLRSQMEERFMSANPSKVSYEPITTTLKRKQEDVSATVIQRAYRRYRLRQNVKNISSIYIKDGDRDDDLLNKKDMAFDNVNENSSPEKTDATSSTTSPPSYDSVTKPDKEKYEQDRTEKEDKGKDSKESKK

`COc1cc(-c2ccc(F)c(C)c2)c(F)cc1-n1c2c(ccc1=O)CN(S(=O)(=O)Nc1ccon1)CC2` (racemic) [Example 22-(Rac), (Rac)-1-(2,4′-difluoro-5-methoxy-3′-methyl-4-biphenylyl)-N-3-isoxazolyl-2-oxo-1,5,7,8-tetrahydro-1,6-naphthyridine-6(2H)-sulfonamide] and `COc1cc(-c2cc(F)cc(F)c2)c(F)cc1-n1c2c(ccc1=O)CN(S(=O)(=O)Nc1ccon1)CC2` (racemic) [Example 25-(Rac), (Rac)-N-3-isoxazolyl-2-oxo-1-(2,3′,5′-trifluoro-5-methoxy-4-biphenylyl)-1,5,7,8-tetrahydro-1,6-naphthyridine-6(2H)-sulfonamide] are within 1.5-fold of each other in IC50: 255 nM for the first, 209 nM for the second.

`COc1cc(C(F)(F)F)ccc1-n1c2c(ccc1=O)CN(S(=O)(=O)Nc1ccon1)CC2` (racemic) [Example 26-(Rac), (Rac)-N-3-isoxazolyl-1-(2-methoxy-4-(trifluoromethyl)phenyl)-2-oxo-1,5,7,8-tetrahydro-1,6-naphthyridine-6(2H)-sulfonamide] and `COc1ccccc1-n1c2c(ccc1=O)CN(S(=O)(=O)Nc1ccon1)CC2` (racemic) [Example 27, (Rac)-N-3-isoxazolyl-1-(2-methoxyphenyl)-2-oxo-1,5,7,8-tetrahydro-1,6-naphthyridine-6(2H)-sulfonamide] cannot be ordered by IC50: over 1000 nM for the first, over 1000 nM for the second.

`COc1cc(-c2cc(F)cc(Cl)c2)c(F)cc1-n1c2c(ccc1=O)CN(S(=O)(=O)Nc1ccc(F)cn1)CC2` (single isomer, unassigned) [Example 12-M, M-1-(3′-chloro-2,5′-difluoro-5-methoxy-4-biphenylyl)-N-(5-fluoro-2-pyridinyl)-2-oxo-1,5,7,8-tetrahydro-1,6-naphthyridine-6(2H)-sulfonamide] and `COc1cc(-c2cc(F)cc(F)c2)c(F)cc1-n1c2c(ccc1=O)CN(S(=O)(=O)Nc1ccon1)CC2` (single isomer, unassigned) [Example 25-M, M-N-3-isoxazolyl-2-oxo-1-(2,3′,5′-trifluoro-5-methoxy-4-biphenylyl)-1,5,7,8-tetrahydro-1,6-naphthyridine-6(2H)-sulfonamide] cannot be ordered by IC50: 9340 nM for the first, over 1000 nM for the second.

Compared with `COc1cc(-c2cc(F)cc(F)c2)c(F)cc1-n1c2c(ccc1=O)CN(S(=O)(=O)Nc1ncon1)CC2` (single isomer, unassigned) [Example 17-P, P-N-1,2,4-oxadiazol-3-yl-2-oxo-1-(2,3′,5′-trifluoro-5-methoxy-4-biphenylyl)-1,5,7,8-tetrahydro-1,6-naphthyridine-6(2H)-sulfonamide], `COc1cc(-c2cc(F)c(F)c(F)c2)c(F)cc1-n1c2c(ccc1=O)CN(S(=O)(=O)Nc1cccnn1)CC2` [Example 46, P-2-oxo-N-3-pyridazinyl-1-(2,3′,4′,5′-tetrafluoro-5-methoxy-4-biphenylyl)-1,5,7,8-tetrahydro-1,6-naphthyridine-6(2H)-sulfonamide] is lower in IC50: over 1000 nM for the first, 102 nM for the second. The second is the more potent here.

Going from `COc1cc(C(F)(F)F)ccc1-n1c2c(ccc1=O)CN(S(=O)(=O)Nc1ccon1)CC2` (single isomer, unassigned) [Example 26-M, M-N-3-isoxazolyl-1-(2-methoxy-4-(trifluoromethyl)phenyl)-2-oxo-1,5,7,8-tetrahydro-1,6-naphthyridine-6(2H)-sulfonamide] to `COc1cc(-c2cccc(C(F)(F)F)c2)c(F)cc1-n1c2c(ccc1=O)CN(S(=O)(=O)Nc1cccnn1)CC2` [Example 45, P-1-(2-fluoro-5-methoxy-3′-(trifluoromethyl)-4-biphenylyl)-2-oxo-N-3-pyridazinyl-1,5,7,8-tetrahydro-1,6-naphthyridine-6(2H)-sulfonamide], the IC50 falls from over 1000 nM to 29.8 nM. The second is the more potent here.

First: COc1cc(C(F)(F)F)ccc1-n1c2c(ccc1=O)CN(S(=O)(=O)Nc1ccon1)CC2 (single isomer, unassigned) [Example 26-P, P-N-3-isoxazolyl-1-(2-methoxy-4-(trifluoromethyl)phenyl)-2-oxo-1,5,7,8-tetrahydro-1,6-naphthyridine-6(2H)-sulfonamide]
Second: COc1cc(-c2ccc(Cl)c(C)c2)c(F)cc1-n1c2c(ccc1=O)CN(S(=O)(=O)Nc1ccncn1)CC2 [Example 1-P, P-1-(4′-chloro-2-fluoro-5-methoxy-3′-methyl-4-biphenylyl)-2-oxo-N-4-pyrimidinyl-1,5,7,8-tetrahydro-1,6-naphthyridine-6(2H)-sulfonamide]
The IC50 of the first is higher: over 1000 nM for the first, 29.6 nM for the second. The second is the more potent here.

Going from `COc1ccc(-c2ccc(C)c(Cl)c2)cc1-n1c2c(ccc1=O)CN(S(=O)(=O)Nc1cccnn1)CC2` (single isomer, unassigned) [Example 55-M, M-1-(3′-chloro-4-methoxy-4′-methyl-3-biphenylyl)-2-oxo-N-3-pyridazinyl-1,5,7,8-tetrahydro-1,6-naphthyridine-6(2H)-sulfonamide] to `COc1ccc(-c2ccc(Cl)c(C)c2)cc1-n1c2c(ccc1=O)CN(S(=O)(=O)Nc1cccnn1)CC2` [Example 56-P, P-1-(4′-chloro-4-methoxy-3′-methyl-3-biphenylyl)-2-oxo-N-3-pyridazinyl-1,5,7,8-tetrahydro-1,6-naphthyridine-6(2H)-sulfonamide], the IC50 falls from over 1000 nM to 493 nM. The second is the more potent here.

Going from `COc1ccc(-c2ccc(C)c(Cl)c2)cc1-n1c2c(ccc1=O)CN(S(=O)(=O)Nc1cccnn1)CC2` (single isomer, unassigned) [Example 55-P, P-1-(3′-chloro-4-methoxy-4′-methyl-3-biphenylyl)-2-oxo-N-3-pyridazinyl-1,5,7,8-tetrahydro-1,6-naphthyridine-6(2H)-sulfonamide] to `COc1cc(-c2ccc(C)c(Cl)c2)c(F)cc1-n1c2c(ccc1=O)CN(S(=O)(=O)Nc1cccnn1)CC2` [Example 44, P-1-(3′-chloro-2-fluoro-5-methoxy-4′-methyl-4-biphenylyl)-2-oxo-N-3-pyridazinyl-1,5,7,8-tetrahydro-1,6-naphthyridine-6(2H)-sulfonamide], the IC50 falls from 710 nM to 73.2 nM (9.7-fold). The second is the more potent here.

`COc1cc(-c2ccc(Cl)c(F)c2)c(F)cc1-n1c2c(ccc1=O)CN(S(=O)(=O)Nc1cccnn1)CC2` [Example 47, P-1-(4′-chloro-2,3′-difluoro-5-methoxy-4-biphenylyl)-2-oxo-N-3-pyridazinyl-1,5,7,8-tetrahydro-1,6-naphthyridine-6(2H)-sulfonamide] and `COc1cc(-c2ccc(F)c(Cl)c2)c(F)cc1-n1c2c(ccc1=O)CN(S(=O)(=O)Nc1cccnn1)CC2` [Example 48, P-1-(3′-chloro-2,4′-difluoro-5-methoxy-4-biphenylyl)-2-oxo-N-3-pyridazinyl-1,5,7,8-tetrahydro-1,6-naphthyridine-6(2H)-sulfonamide] are within 1.5-fold of each other in IC50: 95.1 nM for the first, 80.3 nM for the second.

`COc1cc(-c2cccc(Cl)c2F)c(F)cc1-n1c2c(ccc1=O)CN(S(=O)(=O)Nc1cccnn1)CC2` [Example 49, P-1-(3′-chloro-2,2′-difluoro-5-methoxy-4-biphenylyl)-2-oxo-N-3-pyridazinyl-1,5,7,8-tetrahydro-1,6-naphthyridine-6(2H)-sulfonamide] and `COc1cc(-c2cnc(OC)c(Cl)c2)c(F)cc1-n1c2c(ccc1=O)CN(S(=O)(=O)Nc1cccnn1)CC2` [Example 50, P-1-(4-(5-chloro-6-methoxy-3-pyridinyl)-5-fluoro-2-methoxyphenyl)-2-oxo-N-3-pyridazinyl-1,5,7,8-tetrahydro-1,6-naphthyridine-6(2H)-sulfonamide] are within 1.5-fold of each other in IC50: 168 nM for the first, 172 nM for the second.

From US10472356B2, “Bicyclic ketone sulfonamide compounds” (AMGEN INC., priority 2015, dated 2019)
